From PubChem BioAssay AID588622 (NMMLSC, 2011)
Activity calls are given as the source filed them. How the calls were made is not given here.

Legend:
Assay in all cases: GTPase panel nucleotide binding inhibition – biochemical, bead flow cytometry, Mg non-chelator buffer, round 2, SAR follow-up (AID 588622)
Settings in all cases: bead-based flow cytometry multiplex GTP binding; for % response (lower = inhibition): at 100 µM (top of the series)
RacACT = molecular target: RacACT
Cdc42WT = molecular target: Cdc42WT
Rab7 = molecular target: Rab7
RacWT = molecular target: RacWT
RhoWT = molecular target: RhoWT

Compound	EC50 (RacACT)	EC50 (Cdc42WT)	EC50 (Rab7)	EC50 (RacWT)	EC50 (RhoWT)	% response (lower = inhibition) (RacACT)	% response (lower = inhibition) (RacWT)	% response (lower = inhibition) (Cdc42WT)	% response (lower = inhibition) (Rab7)	% response (lower = inhibition) (RhoWT)
Cc1ccccc1C(=O)NC(=S)Nc1sc2c(c1C(=O)O)CC(C)(C)OC2	370 nM	352 nM	523 nM	438 nM	486 nM	–	–	–	–	–
O=C(NC(=S)Nc1sc2c(c1C(=O)O)CC1(CCCC1)OC2)c1ccccc1	80 nM	50 nM	33 nM	56 nM	101 nM	–	–	–	–	–
CC(C)(C)C1Cc2c(sc(NC(=S)NC(=O)c3ccccc3)c2C(=O)O)CO1 (stereo not given)	146 nM	164 nM	218 nM	139 nM	197 nM	–	–	–	–	–
COc1cccc(C(=O)NC(=S)Nc2sc3c(c2C(=O)O)CC(C)(C)OC3)c1	–	251 nM	323 nM	–	292 nM	inactive	inactive	–	–	–
CCC1(C)Cc2c(sc(NC(=S)NC(=O)c3ccccc3)c2C(=O)O)CO1 (stereo not given)	46 nM	51 nM	35 nM	53 nM	46 nM	–	–	–	–	–
CC1(C)Cc2c(sc(NC(=S)NC(=O)C3CCCCC3)c2C(=O)O)CO1	397 nM	660 nM	461 nM	495 nM	814 nM	–	–	–	–	–
CC1(C)Cc2c(sc(NC(=S)NC(=O)c3cccs3)c2C(=O)O)CO1	27 nM	30 nM	25 nM	29 nM	33 nM	–	–	–	–	–
Cc1cccc(C(=O)NC(=S)Nc2sc3c(c2C(=O)O)CC(C)(C)OC3)c1	–	1680 nM	325 nM	–	1450 nM	inactive	inactive	–	–	–
CC1(C)CCc2sc(NC(=S)NC(=O)c3ccccc3)c(C(=O)O)c2C1	48 nM	62 nM	69 nM	48 nM	62 nM	–	–	–	–	–
CC1(C)Cc2c(sc(NC(=S)NC(=O)c3ccccc3F)c2C(=O)O)CO1	455 nM	443 nM	316 nM	452 nM	431 nM	–	–	–	–	–
COc1ccc(C(=O)NC(=S)Nc2sc3c(c2C(=O)O)CC(C)(C)OC3)cc1	243 nM	203 nM	214 nM	197 nM	213 nM	–	–	–	–	–
CC1(C)Cc2c(sc(NC(=S)NC(=O)c3ccco3)c2C(=O)O)CO1	59 nM	62 nM	82 nM	59 nM	92 nM	–	–	–	–	–
CC1(C)Cc2c(sc(NC(=S)NC(=O)c3ccccc3Br)c2C(=O)O)CO1	1180 nM	1560 nM	1250 nM	–	1330 nM	–	inactive	–	–	–
CC1(C)Cc2c(sc(NC(=S)NC(=O)c3cccc(F)c3)c2C(=O)O)CO1	–	689 nM	423 nM	491 nM	599 nM	inactive	–	–	–	–
CC1(C)Cc2c(sc(NC(=S)NC(=O)c3ccc(Br)cc3)c2C(=O)O)CO1	455 nM	539 nM	431 nM	391 nM	475 nM	–	–	–	–	–
CC1(C)Cc2c(sc(NC(=S)NC(=O)c3ccc(F)cc3)c2C(=O)O)CO1	133 nM	171 nM	77 nM	147 nM	112 nM	–	–	–	–	–
COc1ccccc1C(=O)NC(=S)Nc1sc2c(c1C(=O)O)CC(C)(C)OC2	–	–	–	–	–	inactive	inactive	inactive	inactive	inactive
CC1(C)Cc2c(sc(NC(=S)Nc3ccccc3)c2C(=O)O)CO1	–	–	4990 nM	–	–	inactive	inactive	inactive	–	inactive
CC1(C)Cc2c(sc(NC(=S)NC(=O)c3cccc(Br)c3)c2C(=O)O)CO1	–	–	–	–	–	inactive	inactive	inactive	inactive	inactive
Cc1ccc(C(=O)NC(=S)Nc2sc3c(c2C(=O)O)CC(C)(C)OC3)cc1	139 nM	109 nM	97 nM	147 nM	131 nM	–	–	–	–	–
